Experimental data as given in patent publication US20040023972A1, “Use of substituted imidazo[1,2-a]-pyridin-, -pyrimidin-and-pyrazin-3-yl-amine derivatives in the preparation of medicaments for inhibiting NOS” (Gruenenthal GmbH, priority 2000, published 2004).

Target: T1, NO synthase (Rattus norvegicus, UniProt P29476)
T1 construct: the supernatant was then removed by decantation and frozen in portions at −80° C; from tissue; host or cells: rat cerebellum, 20,000 g supernatant of homogenate
Experiment: HTS-NOS assay (NOS assay): conversion of radioactive arginine, cation-exchanger filter plate
Type: biochemical
Conditions: for inhibition at 10 µM: read-out: HTS-NOS assay: % inhibition (10 μM)
Method in brief: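 Rat cerebellum supernatant as NOS source, incubated with radiolabelled arginine plus cofactors including NADPH at 25 °C for 5-60 min depending on enzyme activity. Unconverted arginine was trapped on a cation-exchange filter plate, citrulline washed out, and bound arginine counted by scintillation; % inhibition versus no-compound reactions.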

Compound	HTS-NOS assay: % inhibition (10 μM)	inhibition at 10 µM
[C-]#[N+]CCCCCCN(C(C)=O)c1c(-c2cccnc2)nc2cc(C)cc(C)n12 [Example 232, {6-[acetyl-(5,7-dimethyl-2-pyridin-3-yl-imidazo[1,2-a]pyridin-3-yl)-amino]-hexyl}-methylidyne-ammonium]	59%	–
CSc1ccc(-c2nc3cnccn3c2N(C(C)=O)C(C)(C)C)s1 [Example 233, N-tert-butyl-N-[2-(5-methylsulfanyl-thiophen-2-yl)-imidazo[1,2-a]pyrazin-3-yl]-acetamide]	–	53%
CC(=O)N(c1c(-c2ccc(C(=O)O)s2)nc2cccc(C)n12)C1CCCCC1 [Example 234, 5-[3-(acetyl-cyclohexyl-amino)-5-methyl-imidazo[1,2-a]pyridin-2-yl]-thiophene-2-carboxylic acid]	–	58%
CSc1ccc(-c2nc3cnccn3c2N(C(C)=O)C(C)(C)CC(C)(C)C)s1 [Example 235, N-[2-(5-methylsulfanyl-thiophen-2-yl)-imidazo[1,2-a]pyrazin-3-yl]-N-(1,1,3,3-tetramethyl-butyl)-acetamide]	–	58%
CC(=O)N(c1c(C)cccc1C)c1c(-c2cccc(Cl)c2Cl)nc2cccc(C)n12 [Example 236, N-[2-(2,3-dichloro-phenyl)-5-methyl-imidazo[1,2-a]pyridin-3-yl]-N-(2,6-dimethyl-phenyl)-acetamide]	–	58%
CCCCN(C(C)=O)c1c(-c2ccccc2OC)nc2ccccn12 [Example 237, N-butyl-N-[2-(2-methoxy-phenyl)-imidazo[1,2-a]pyridin-3-yl]-acetamide]	–	55%
C#[N+]CCCCCCN(C(C)=O)c1c(-c2ccccc2OC)nc2ccc([N+](=O)[O-])cn12 [Example 238, (6-{acetyl-[2-(2-methoxy-phenyl)-6-nitro-imidazo[1,2-a]pyridin-3-yl]-amino}-hexyl)-methylidyne-ammonium]	52%	–
CC(=O)N(c1c(C)cccc1C)c1c(-c2cc3ccccc3o2)nc2cc(C)ccn12 [Example 239, N-(2-benzofuran-2-yl-7-methyl-imidazo[1,2-a]pyridin-3-yl)-N-(2,6-dimethylphenyl)-acetamide]	–	52%
C#[N+]CCCCCCN(C(C)=O)c1c(-c2ccccc2OC)nc2cc(C)cc(C)n12 [Example 240, (6-{acetyl-[2-(2-methoxy-phenyl)-5,7-dimethyl-imidazo[1,2-a]pyridin-3-yl]-amino}-hexyl)-methylidyne-ammonium]	61%	–
[C-]#[N+]CCCCCCN(C(C)=O)c1c(-c2cccnc2)nc2cc(C)ccn12 [Example 241, {6-[acetyl-(7-methyl-2-pyridin-3-yl-imidazo[1,2-a]pyridin-3-yl)-amino]-hexyl}-methylidyne-ammonium]	62%	–
CC(=O)N(c1c(-c2ccc(C)cc2)nc2ccc(C)cn12)C(C)(C)CC(C)(C)C [Example 242, N-(6-methyl-2-p-tolyl-imidazo[1,2-a]pyridin-3-yl)-N-(1,1,3,3-tetramethyl-butyl)-acetamide]	–	58%
CC(=O)OCc1ccc(-c2nc3cc(C)cc(C)n3c2N(C(C)=O)c2c(C)cccc2C)o1 [Example 243, acetic acid 5-{3-[acetyl-(2,6-dimethyl-phenyl)-amino]-5,7-dimethyl-imidazo[1,2-a]pyridin-2-y}-furan-2-yl methyl ester]	62%	–
COC(=O)CN(C(C)=O)c1c(-c2cccc(O)c2)nc2ccc(C)cn12 [Example 244, {acetyl-[2-(3-hydroxy-phenyl)-6-methyl-imidazo[1,2-a]pyridin-3-yl]-amino}-acetic acid methyl ester]	–	50%
CC(=O)N(c1c(-c2ccccc2C(F)(F)F)nc2ccccn12)C(C)(C)C [Example 245, N-tert-butyl-N-[2-(2-trifluorO-methyl-phenyl)-imidazo[1,2-a]pyridin-3-yl]-acetamide]	56%	–
CCCCN(C(C)=O)c1c(-c2ccc(F)cc2Cl)nc2ccccn12 [Example 246, N-butyl-N-[2-(2-chloro-4-fluoro-phenyl)-imidazo[1,2-a]pyridin-3-yl]-acetamide]	–	55%
CC(=O)N(c1c(C)cccc1C)c1c(-c2ccc(Cl)cc2Cl)nc2ccccn12 [Example 247, N-[2-(2,4-dichloro-phenyl)-imidazo[1,2-a]pyridin-3-yl]-N-(2,6-dimethyl-phenyl)-acetamide]	–	56%
CC(=O)N(c1c(-c2ccc(C(=O)O)o2)nc2nc(C)ccn12)C(C)(C)CC(C)(C)C [Example 248, 5-{3-[acetyl-(1,1,3,3-tetramethyl-butyl)-amino]-7-methyl-imidazo[1,2-a]-pyrimidin-2-yl}-furan-2-carboxylic acid]	–	52%
CC(=O)OCc1ccc(-c2nc3ncccn3c2N(C(C)=O)C(C)(C)CC(C)(C)C)o1 [Example 249, acetic acid 5-{3-[acetyl-(1,1,3,3-tetramethyl-butyl)-amino]-imidazo[1,2-a]-pyrimidin-2-yl}-furan-2-yl methyl ester]	54%	–

Compound	HTS-NOS assay: % inhibition (10 μM)	inhibition at 10 µM
CC(=O)N(c1c(C)nc2cc(C)ccn12)C(C)(C)CC(C)(C)C [Example 250, N-(2,7-dimethyl-imidazo[1,2-a]pyridin-3-yl)-N-(1,1,3,3-tetramethyl-butyl)-acetamide]	–	58%
COc1cc(-c2nc3nc(Cl)cc(N)n3c2N(C(C)=O)C2CCCCC2)ccc1OC(C)=O [Example 251, acetic acid 4-[3-(acetyl-cyclohexyl-amino)-5-amino-7-chloro-imidazo[1,2-a]-pyrimidin-2-yl]-2-methoxy-phenyl ester]	–	51%
COc1cc(-c2nc3nc(C)cc(C)n3c2N(C(C)=O)C2CCCCC2)ccc1OC(C)=O [Example 252, acetic acid 4-[3-(acetyl-cyclohexyl-amino)-5,7-dimethyl-imidazo[1,2-a]-pyrimidin-2-yl]-2-methoxy-phenyl ester]	–	53%
CC(=O)N(c1c(-c2c(F)cccc2Cl)nc2c(C)cc(Br)cn12)C1CCCCC1 [Example 253, N-[6-bromo-2-(2-chloro-6-fluoro-phenyl)-8-methyl-imidazo[1,2-a]pyridin-3-yl]-N-cyclohexyl-acetamide]	–	51%
CC(=O)N(c1c(-c2c(F)cccc2Cl)nc2cccc(C)n12)C1CCCCC1 [Example 254, N-[2-(2-chloro-6-fluoro-phenyl)-5-methyl-imidazo[1,2-a]pyridin-3-yl]-N-cyclohexyl-acetamide]	–	51%
CCCCN(C(C)=O)c1c(-c2cccc(Cl)c2Cl)nc2ncccn12 [Example 255, N-butyl-N-[2-(2,3-dichloro-phenyl)-imidazo[1,2-a]pyrimidin-3-yl]-acetamide]	–	65%
CC(=O)N(c1c(-c2ccc(Cl)s2)nc2ncccn12)C(C)(C)CC(C)(C)C [Example 256, N-[2-(5-chloro-thiophen-2-yl)-imidazo[1,2-a]pyrimidin-3-yl]-N-(1,1,3,3-tetramethyl-butyl)-acetamide]	–	55%
COC(=O)CN(C(C)=O)c1c(C2CCCCC2)nc2cc(C)ccn12 [Example 257, [acetyl-(2-cyclohexyl-7-methyl-imidazo[1,2-a]pyridin-3-yl)-amino]-acetic acid methyl ester]	–	56%
CC(=O)N(c1c(-c2c(F)cccc2Cl)nc2ccccn12)C(C)(C)C [Example 258, N-tert-butyl-N-[2-(2-chloro-6-fluoro-phenyl)-imidazo[1,2-a]pyridin-3-yl]-acetamide]	–	60%
CC(=O)N(c1c(-c2ccccn2)nc2cc(C)cc(C)n12)C1CCCCC1 [Example 259, N-cyclohexyl-N-(5,7-dimethyl-2-pyridin-2-yl-imidazo[1,2-a]pyridin-3-yl)-acetamide]	–	73%
CC(=O)OCc1ccc(-c2nc3cccc(C)n3c2N(C(C)=O)C2CCCCC2)o1 [Example 260, acetic acid 5-[3-(acetyl-cyclohexyl-amino)-5-methyl-imidazo[1,2-a]pyridin-2-yl]-furan-2-yl methyl ester]	51%	–
CC(=O)N(c1c(C)cccc1C)c1c(-c2ccccc2C(F)(F)F)nc2ccc(C)cn12 [Example 261, N-(2,6-dimethyl-phenyl)-N-[6-methyl-2-(2-trifluorO-methyl-phenyl)-imidazo[1,2-a]pyridin-3-yl]-acetamide]	61%	–
CC(=O)N(c1c(-c2ccco2)nc2cc(C)ccn12)C1CCCCC1 [Example 262, N-cyclohexyl-N-(2-furan-2-yl-7-methyl-imidazo[1,2-a]pyridin-3-yl)-acetamide]	–	54%
CC(=O)N(c1c(-c2ccccn2)nc2cc(C)ccn12)C1CCCCC1 [Example 263, N-cyclohexyl-N-(7-methyl-2-pyridin-2-yl-imidazo[1,2-a]pyridin-3-yl)-acetamide]	–	64%
CC(=O)N(c1c(-c2ccc(C3OCCO3)o2)nc2cccc(C)n12)C1CCCCC1 [Example 264, N-cyclohexyl-N-[2-(5-[1,3]dioxolan-2-yl-furan-2-yl)-5-methyl-imidazo[1,2-a]-pyridin-3-yl]-acetamide]	–	50%
CCCc1cccc2nc(-c3cccnc3)c(N(C(C)=O)C(C)(C)C)n12 [Example 265, N-tert-butyl-N-(5-propyl-2-pyridin-3-yl-imidazo[1,2-a]pyridin-3-yl)-acetamide]	–	54%
CC(=O)N(c1c(-c2ccc(C)s2)nc2ncccn12)C(C)(C)C [Example 266, N-tert-butyl-N-[2-(5-methyl-thiophen-2-yl)-imidazo[1,2-a]pyrimidin-3-yl]-acetamide]	–	53%
CC(=O)N(c1c(-c2ccco2)nc2c(C(=O)O)cccn12)C(C)(C)CC(C)(C)C [Example 267, 3-[acetyl-(1,1,3,3-tetramethyl-butyl)-amino]-2-furan-2-yl-imidazo[1,2-a]pyridine-8-carboxylic acid]	–	62%
